# From PubChem BioAssay AID1963968 (Molecular Pharmacology Branch, DTP, NCI, 2024)
# Several values for one entry are separate records, joined by “and”; a condition that tells them apart may be missing. Equal entries are not always repeated.
# Test system: 945468-187-T-J3-PDC spheroids with HUVEC/MSC, viability
# Assay: Anticancer human tumor 945468-187-T-J3-PDC patient-derived rectal carcinoma cell line growth inhibition [PI3K]
# Details: for viability, T/C: stronger effect = lower value
# How it was run: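 Complex 3D spheroids (cancer cells + endothelial HUVEC + mesenchymal stem cells); drug pairs of targeted agent x inavolisib/alpelisib/duvelisib/copanlisib; half-log series from ~Cmax, max 10 microM if Cmax unknown; endpoint viability.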
# [1] = curve of first compound, second compound 0.0316 µM
# [2] = curve of first compound, second compound 0.1 µM
# [3] = curve of first compound, second compound 0.316 µM
# [4] = curve of first compound, second compound 1 µM
# [5] = curve of first compound, second compound 3.16 µM
# [6] = curve of first compound, second compound 10 µM
# [7] = second compound 0.0316 µM, first compound 0.00316 µM
# [8] = second compound 0.0316 µM, first compound 0.01 µM
# [9] = second compound 0.0316 µM, first compound 0.0316 µM
# [10] = second compound 0.0316 µM, first compound 0.1 µM
# [11] = second compound 0.1 µM, first compound 0.00316 µM
# [12] = second compound 0.1 µM, first compound 0.01 µM
# [13] = second compound 0.1 µM, first compound 0.0316 µM
# [14] = second compound 0.1 µM, first compound 0.1 µM
# [15] = second compound 0.316 µM, first compound 0.00316 µM
# [16] = second compound 0.316 µM, first compound 0.01 µM
# [17] = second compound 0.316 µM, first compound 0.0316 µM
# [18] = second compound 0.316 µM, first compound 0.1 µM
# [19] = second compound 1 µM, first compound 0.00316 µM
# [20] = second compound 1 µM, first compound 0.01 µM
# [21] = second compound 1 µM, first compound 0.0316 µM
# [22] = second compound 1 µM, first compound 0.1 µM
# [23] = second compound 3.16 µM, first compound 0.00316 µM
# [24] = second compound 3.16 µM, first compound 0.01 µM
# [25] = second compound 3.16 µM, first compound 0.0316 µM
# [26] = second compound 3.16 µM, first compound 0.1 µM
# [27] = second compound 10 µM, first compound 0.00316 µM
# [28] = second compound 10 µM, first compound 0.01 µM
# [29] = second compound 10 µM, first compound 0.0316 µM
# [30] = second compound 10 µM, first compound 0.1 µM
# [31] = second compound 0.0316 µM, first compound 0.316 µM
# [32] = second compound 0.0316 µM, first compound 1 µM
# [33] = second compound 0.1 µM, first compound 0.316 µM
# [34] = second compound 0.1 µM, first compound 1 µM
# [35] = second compound 0.316 µM, first compound 0.316 µM
# [36] = second compound 0.316 µM, first compound 1 µM
# [37] = second compound 1 µM, first compound 0.316 µM
# [38] = second compound 1 µM, first compound 1 µM
# [39] = curve of first compound, second compound 0.00316 µM
# [40] = curve of first compound, second compound 0.01 µM
# [41] = second compound 0.00316 µM, first compound 0.0316 µM
# [42] = second compound 0.00316 µM, first compound 0.1 µM
# [43] = second compound 0.00316 µM, first compound 0.316 µM
# [44] = second compound 0.00316 µM, first compound 1 µM
# [45] = second compound 0.00316 µM, first compound 3.16 µM
# [46] = second compound 0.00316 µM, first compound 10 µM
# [47] = second compound 0.01 µM, first compound 0.0316 µM
# [48] = second compound 0.01 µM, first compound 0.1 µM
# [49] = second compound 0.01 µM, first compound 0.316 µM
# [50] = second compound 0.01 µM, first compound 1 µM
# [51] = second compound 0.01 µM, first compound 3.16 µM
# [52] = second compound 0.01 µM, first compound 10 µM
# [53] = second compound 0.0316 µM, first compound 3.16 µM
# [54] = second compound 0.0316 µM, first compound 10 µM
# [55] = second compound 0.1 µM, first compound 3.16 µM
# [56] = second compound 0.1 µM, first compound 10 µM
# [57] = second compound 0.316 µM, first compound 3.16 µM
# [58] = second compound 0.316 µM, first compound 10 µM
# [59] = second compound 1 µM, first compound 3.16 µM
# [60] = second compound 1 µM, first compound 10 µM
# 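Note: spheroids exposed to agents for 7 days before viability read.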
# 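Throughout, for viability, T/C: 100% = DMSO vehicle control viability.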
smiles,measurement,setting,value
CC(C)n1nc(-c2ccc3oc(N)nc3c2)c2c(N)ncnc21 + CC(Nc1ncnc2nc[nH]c12)c1cc2cccc(Cl)c2c(=O)n1-c1ccccc1,IC50,[1],> 100 nM
same,IC50,[2],> 100 nM
same,IC50,[3],> 100 nM
same,IC50,[4],> 100 nM
same,IC50,[5],87.7 nM
same,IC50,[6],70.7 nM
same,"viability, T/C","second compound 0.0316 µM, first compound 0.000316 µM",105%
same,"viability, T/C","second compound 0.0316 µM, first compound 0.001 µM",101%
same,"viability, T/C",[7],95%
same,"viability, T/C",[8],99.1%
same,"viability, T/C",[9],93.2%
same,"viability, T/C",[10],62.2%
same,"viability, T/C","second compound 0.1 µM, first compound 0.000316 µM",122%
same,"viability, T/C","second compound 0.1 µM, first compound 0.001 µM",103%
same,"viability, T/C",[11],101%
same,"viability, T/C",[12],91.9%
same,"viability, T/C",[13],105%
same,"viability, T/C",[14],50.5%
same,"viability, T/C","second compound 0.316 µM, first compound 0.000316 µM",99%
same,"viability, T/C","second compound 0.316 µM, first compound 0.001 µM",89.1%
same,"viability, T/C",[15],102%
same,"viability, T/C",[16],97.1%
same,"viability, T/C",[17],104%
same,"viability, T/C",[18],59.5%
same,"viability, T/C","second compound 1 µM, first compound 0.000316 µM",99.7%
same,"viability, T/C","second compound 1 µM, first compound 0.001 µM",98.4%
same,"viability, T/C",[19],98.3%
same,"viability, T/C",[20],112%
same,"viability, T/C",[21],96%
same,"viability, T/C",[22],51.1%
same,"viability, T/C","second compound 3.16 µM, first compound 0.000316 µM",104%
same,"viability, T/C","second compound 3.16 µM, first compound 0.001 µM",89.8%
same,"viability, T/C",[23],99.1%
same,"viability, T/C",[24],101%
same,"viability, T/C",[25],103%
same,"viability, T/C",[26],43.6%
same,"viability, T/C","second compound 10 µM, first compound 0.000316 µM",103%
same,"viability, T/C","second compound 10 µM, first compound 0.001 µM",96.9%
same,"viability, T/C",[27],93.5%
same,"viability, T/C",[28],87%
same,"viability, T/C",[29],89.3%
same,"viability, T/C",[30],33.7%
CCN1CCN(Cc2ccc(Nc3ncc(F)c(-c4cc(F)c5nc(C)n(C(C)C)c5c4)n3)nc2)CC1 + Cc1nc(NC(=O)N2CCCC2C(N)=O)sc1-c1ccnc(C(C)(C)C(F)(F)F)c1,IC50,[1],> 1000 nM
same,IC50,[2],> 1000 nM
same,IC50,[3],> 1000 nM
same,IC50,[4],735 nM
same,IC50,[5],299 nM
same,IC50,[6],35.5 nM
same,"viability, T/C",[7],83.5%
same,"viability, T/C",[8],103%
same,"viability, T/C",[9],95.6%
same,"viability, T/C",[10],105%
same,"viability, T/C",[31],115%
same,"viability, T/C",[32],105%
same,"viability, T/C",[11],87.8%
same,"viability, T/C",[12],97.9%
same,"viability, T/C",[13],107%
same,"viability, T/C",[14],103%
same,"viability, T/C",[33],121%
same,"viability, T/C",[34],102%
same,"viability, T/C",[15],97%
same,"viability, T/C",[16],96.2%
same,"viability, T/C",[17],95.6%
same,"viability, T/C",[18],107%
same,"viability, T/C",[35],113%
same,"viability, T/C",[36],53.5%
same,"viability, T/C",[19],102%
same,"viability, T/C",[20],103%
same,"viability, T/C",[21],101%
same,"viability, T/C",[22],106%
same,"viability, T/C",[37],90.3%
same,"viability, T/C",[38],35.2%
same,"viability, T/C",[23],107%
same,"viability, T/C",[24],97.5%
same,"viability, T/C",[25],88.9%
same,"viability, T/C",[26],99.3%
same,"viability, T/C","second compound 3.16 µM, first compound 0.316 µM",47.5%
same,"viability, T/C","second compound 3.16 µM, first compound 1 µM",26.9%
same,"viability, T/C",[27],65.6%
same,"viability, T/C",[28],59.4%
same,"viability, T/C",[29],45.6%
same,"viability, T/C",[30],45.8%
same,"viability, T/C","second compound 10 µM, first compound 0.316 µM",35.2%
same,"viability, T/C","second compound 10 µM, first compound 1 µM",23.7%
Cn1nccc1Nc1nccc(-c2ccn(C(CO)c3ccc(Cl)c(F)c3)c(=O)c2)n1 (stereo not drawn),"viability, T/C",compound 0.0316 µM,95.4% [middle of 4 runs]
same,"viability, T/C",compound 0.1 µM,104% [middle of 4 runs]
same,"viability, T/C",compound 1 µM,111% [middle of 4 runs]
same,"viability, T/C",compound 3.16 µM,136% (2×) and 113% and 127%
same,IC50,curve of compound,> 10000 nM
Cn1ncc(Cl)c1-c1cc(C(=O)NC(CN)Cc2cccc(F)c2)sc1Cl (stereo not drawn) + CC(Nc1ccc2c(c1)OCCn1cc(N3C(=O)OCC3C(F)F)nc1-2)C(N)=O,IC50,[39],5400 nM
same,IC50,[40],3090 nM
same,IC50,[1],2570 nM
same,IC50,[2],1820 nM
same,IC50,[3],1120 nM
same,IC50,[4],193 nM
same,"viability, T/C",[41],100%
same,"viability, T/C",[42],99%
same,"viability, T/C",[43],83.8%
same,"viability, T/C",[44],80.8%
same,"viability, T/C",[45],58.9%
same,"viability, T/C",[46],38.1%
same,"viability, T/C",[47],107%
same,"viability, T/C",[48],107%
same,"viability, T/C",[49],100%
same,"viability, T/C",[50],86.2%
same,"viability, T/C",[51],48.5%
same,"viability, T/C",[52],38.2%
same,"viability, T/C",[9],118%
same,"viability, T/C",[10],99.6%
same,"viability, T/C",[31],82.4%
same,"viability, T/C",[32],62%
same,"viability, T/C",[53],47.6%
same,"viability, T/C",[54],35.1%
same,"viability, T/C",[13],96.6%
same,"viability, T/C",[14],89.5%
same,"viability, T/C",[33],81.8%
same,"viability, T/C",[34],55.8%
same,"viability, T/C",[55],43.9%
same,"viability, T/C",[56],25.9%
same,"viability, T/C",[17],96%
same,"viability, T/C",[18],87.8%
same,"viability, T/C",[35],57.5%
same,"viability, T/C",[36],55.6%
same,"viability, T/C",[57],38.5%
same,"viability, T/C",[58],23.3%
same,"viability, T/C",[21],89.4%
same,"viability, T/C",[22],55.2%
same,"viability, T/C",[37],45.4%
same,"viability, T/C",[38],32.9%
same,"viability, T/C",[59],33%
same,"viability, T/C",[60],19.6%
CC(C)NCC(C(=O)N1CCN(c2ncnc3c2C(C)CC3O)CC1)c1ccc(Cl)cc1 (stereo not drawn),"viability, T/C",compound 0.0316 µM,92.6% [middle of 4 runs]
same,"viability, T/C",compound 0.316 µM,100% [middle of 4 runs]
same,"viability, T/C",compound 1 µM,94.6% [middle of 4 runs]
same,"viability, T/C",compound 3.16 µM,65.2% [middle of 4 runs]
same,"viability, T/C",compound 10 µM,39.3% [middle of 4 runs]
Cn1nccc1Nc1nccc(-c2ccn(C(CO)c3ccc(Cl)c(F)c3)c(=O)c2)n1 (stereo not drawn) + CC(Nc1ccc2c(c1)OCCn1cc(N3C(=O)OCC3C(F)F)nc1-2)C(N)=O,IC50,[39],> 10000 nM
same,IC50,[40],> 10000 nM
same,IC50,[1],> 10000 nM
same,IC50,[2],> 10000 nM
same,IC50,[3],> 10000 nM
same,IC50,[4],> 10000 nM
same,"viability, T/C",[41],93.2%
same,"viability, T/C",[42],108%
same,"viability, T/C",[43],103%
same,"viability, T/C",[44],120%
same,"viability, T/C",[45],143%
same,"viability, T/C",[46],145%
same,"viability, T/C",[47],103%
same,"viability, T/C",[48],101%
same,"viability, T/C",[49],97.5%
same,"viability, T/C",[50],115%
same,"viability, T/C",[51],124%
same,"viability, T/C",[52],131%
same,"viability, T/C",[9],106%
same,"viability, T/C",[10],99.4%
same,"viability, T/C",[31],106%
same,"viability, T/C",[32],122%
same,"viability, T/C",[53],131%
same,"viability, T/C",[54],123%
same,"viability, T/C",[13],102%
same,"viability, T/C",[14],108%
same,"viability, T/C",[33],115%
same,"viability, T/C",[34],124%
same,"viability, T/C",[55],115%
same,"viability, T/C",[56],116%
same,"viability, T/C",[17],97.3%
same,"viability, T/C",[18],91.7%
same,"viability, T/C",[35],97.2%
same,"viability, T/C",[36],89.3%
same,"viability, T/C",[57],78.3%
same,"viability, T/C",[58],80.1%
same,"viability, T/C",[21],78.8%
same,"viability, T/C",[22],79.8%
same,"viability, T/C",[37],65%
same,"viability, T/C",[38],72%
same,"viability, T/C",[59],60.7%
same,"viability, T/C",[60],62.7%
